Where two headings read alike, the source gives them in different places.
Columns and labels:
trkC.IgG = experiment: Competitive displacement binding with iodinated NT3 to trkC.IgG; set-up: species or system human
Experimental: (§1) The media mentioned above (having the gD.trk.IgG) was used without further purification in binding assays to assess the effects of the presence of the gD flag polypeptide on neurotrophin binding to the gD.trk.IgG polypeptides. DNA encoding untagged trk.IgG polypeptide was run in parallel as a control. trk.IgG and gD tagged trk.IgG containing cell supernatants were prepared as described and used in competitive displacement assays with the appropriate iodinated neurotrophin. NGF is used as ligand for trkA, NT5 is used as ligand for trkB, and NT3 is used as a ligand for trkC.

[1] = tested on: p185^HER2 (HER2 receptor); experiment: p185HER2 KIRA ELISA (receptor autophosphorylation in MCF-7 cells); format: cell-based, human; conditions: for receptor stimulation and autophosphorylation (assay specificity, FIG. 8): HRG up to 3000 pM, other ligands up to 30000 pM
Experimental: MCF-7 cells (2×10^5) in 100 μl media were added to each well in a flat-bottom-96 well culture plate and cultured overnight at 37° C. in 5% CO2. The following morning the well supernatants were decanted, and the plates were lightly tamped on a paper towel. 50 μl of media containing either experimental samples or the recombinant HRGβ1177-244 standards (3000, 1000, 333, 111, 37, 12, 4, and 0 pM) was then added to each well. The cells were stimulated at 37° C. for 30 min., the well supernatants were decanted, and the plates were once again lightly tamped on a paper towel. To lyse the cells and solubilize the receptors, 100 μl of lysis buffer was added to each well. Lysis buffer consisted of 150 mM NaCl containing 50 mM HEPES (Gibco), 0.5% Triton-X 100 (Gibco), 0.01% thimerosal, 30 KIU/ml aprotinin (ICN Biochemicals, Aurora, Ohio), 1 mM 4-(2-aminoethyl)-benzenesulfonyl fluoride hydrochloride (AEBSF; ICN Biochemicals), 50 μM leupeptin (ICN Biochemicals), and 2 mM sodium orthovanadate (Na3 VO4, Sigma Chemical Co, St. Louis, Mo.), pH 7.5. The plate was then agitated gently on a plate shaker (Bellco Instruments, Vineland, N.J.) for 60 min. at room temperature.
While the cells were being solubilized, an ELISA microtiter plate (Nunc Maxisorp, Inter Med, Denmark) coated overnight at 4° C. with the affinity-purified polyclonal anti-HER2 ECD (1.0 μg/ml in 50 mM carbonate buffer, pH 9.6, 100 μl/well) was decanted, tamped on a paper towel and blocked with 150 μl/well of Block Buffer [PBS containing 0.5% BSA (Intergen Company, Purchase, N.Y.) and 0.01% thimerosal] for 60 min. at room temperature with gentle agitation. After 60 minutes, the anti-HER2 ECD coated plate was washed 6 times with wash buffer (PBS containing 0.05% Tween-20 and 0.01% thimerosal) using an automated plate washer (ScanWasher 300, Skatron Instruments, Inc, Sterling, Va.).
The lysate containing solubilized p185^HER2 from the cell-culture microtiter well was transferred (85 μl/well) to anti-rHER2 ECD coated and blocked ELISA well and was incubated for 2 h at room temperature with gentle agitation. […] The absorbance at 450 nm was read with a reference wavelength of 650 nm (ABS450/650), using a vmax plate reader (Molecular Devices, Palo Alto, Calif.) controlled with a Macintosh Centris 650 (Apple Computers, Cupertino, Calif.) and DeltaSoft software (BioMetallics, Inc, Princeton, N.J.).
The standard curve shown in FIG. 7 was generated by stimulating MCF-7 cells with 3000, 1000, 333, 111, 37, 12, 4, or 0 pM HRGβ1177-244 and presented as pM HRGβ1177-244 vs. mean ABS450/650 ±sd using the DeltaSoft program. Sample concentrations were obtained by interpolation of their absorbance on the standard curve and are expressed in terms of pM HRGβ1177-244 activity.

trkA.IgG = experiment: Competitive displacement binding with iodinated NGF to trkA.IgG; set-up: species or system human
Experimental: as §1

trkB.IgG = experiment: Competitive displacement binding with iodinated NT5 to trkB.IgG; set-up: species or system human
Experimental: as §1

“NT3: neurotrophin 3 prepared by recombinant techniques; ligand for trkC” was tested, and the IC50 (trkC.IgG; gD tagged trkC.IgG, read-out: IC50 with gD) was 0.0302 ± 0.0007 nM and the IC50 (trkC.IgG; trkC.IgG, untagged, read-out: IC50 without gD) was 0.0311 ± 0.0011 nM.

With IGF-1: insulin-like growth factor-1 the “receptor stimulation and autophosphorylation (assay specificity, FIG. 8)” value [1] was “Neither insulin-like growth factor-1 (IGF-1), vascular endothelial growth factor (VEGF) nor insulin have any detectable effect”.

In the case of insulin: insulin, the “receptor stimulation and autophosphorylation (assay specificity, FIG. 8)” value [1] is reported as “Neither insulin-like growth factor-1 (IGF-1), vascular endothelial growth factor (VEGF) nor insulin have any detectable effect”.

EGF: epidermal growth factor showed an OD450/650 ([1]; highest concentration tested (100 nM)) of 0.239.

In the case of VEGF, the “receptor stimulation and autophosphorylation (assay specificity, FIG. 8)” value [1] is reported as “Neither insulin-like growth factor-1 (IGF-1), vascular endothelial growth factor (VEGF) nor insulin have any detectable effect”.

Work on “NGF: nerve growth factor prepared by recombinant techniques; ligand for trkA” yielded an IC50 (trkA.IgG; gD tagged trkA.IgG, read-out: IC50 with gD) of 0.0688 ± 0.003 nM and an IC50 (trkA.IgG; trkA.IgG, untagged, read-out: IC50 without gD) of 0.0684 ± 0.0119 nM.

B1: NT5: neurotrophin 5 prepared by recombinant techniques; ligand for trkB (protein, UniProt P34130 81-210, looked up)
Neurotrophin-4: GVSETAPASRRGELAVCDAVSGWVTDRRTAVDLRGREVEVLGEVPAAGGSPLRQYFFETRCKADNAEEGGPGAGGGGCRGVDRRHWVSECKAKQSYVRALTADAQGRVGWRWIRIDTACVCTLLSRTGRA
Molecule B1 has an IC50 (trkB.IgG; gD tagged trkB.IgG, read-out: IC50 with gD) of 0.0121 ± 0.018 nM and an IC50 (trkB.IgG; trkB.IgG, untagged, read-out: IC50 without gD) of 0.0311 ± 0.0156 nM.

Source: patent publication US5914237A, “Kinase receptor activation assay” (Genentech Incorporated, priority 1995, dated 1999)
